In ChEMBL document CHEMBL1201862, “PubChem BioAssay data set” (2004):
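Tested at 5 concentrations; 48 h exposure; 96-well plates; endpoints linearly interpolated, else capped at highest concentration. GI50 is the concentration that inhibits growth by half.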 Calls of active or inactive are those of the source. Cut-off read from the data, not from the text of the source: active = GI50 up to about 1.1 µM and inactive = higher.

Experiments:
Test in all cases: NCI-60 cell line screen, 48 h
[1] = system: 786-0
[2] = system: A498
[3] = system: A549
[4] = system: ACHN
[5] = system: BT-549
[6] = system: CAKI-1
[7] = system: CCRF-CEM
[8] = system: COLO 205
[9] = system: DU-145
[10] = system: EKVX
[11] = system: HCC 2998
[12] = system: HCT-116
[13] = system: HCT-15
[14] = system: HL-60
[15] = system: HOP-62
[16] = system: HOP-92
[17] = system: HT-29
[18] = system: IGROV-1
[19] = system: K562
[20] = system: KM12
[21] = system: LOX IMVI
[22] = system: M14
[23] = system: MCF7
[24] = system: MDA-MB-231
[25] = system: MDA-MB-435
[26] = system: MDA-N
[27] = system: MOLT-4
[28] = system: Malme-3M
[29] = system: NCI-H226
[30] = system: NCI-H23
[31] = system: NCI-H460
[32] = system: NCI-H522
[33] = system: NCI/ADR-RES
[34] = system: OVCAR-3
[35] = system: OVCAR-4
[36] = system: OVCAR-5
[37] = system: OVCAR-8
[38] = system: PC-3
[39] = system: RPMI-8226
[40] = system: RXF 393
[41] = system: SF-295
[42] = system: SF-539
[43] = system: SK-MEL-28
[44] = system: SK-MEL-2
[45] = system: SK-MEL-5
[46] = system: SK-OV-3
[47] = system: SN12C
[48] = system: SNB-19
[49] = system: SNB-75
[50] = system: SR
[51] = system: SW-620
[52] = system: T47D
[53] = system: TK-10
[54] = system: U-251
[55] = system: UACC-257
[56] = system: UACC-62
[57] = system: UO-31

## COc1ccc(NC(C)=O)cc1N1C(=O)/C(=C\c2cccc(Oc3ccccc3)c2)S(=O)(=O)C1c1ccccc1 (configuration not stated)
[1]
  GI50: 32.2 µM (inactive)
[2]
  GI50: > 100 µM (inactive)
[3]
  GI50: 62.8 µM (inactive)
[4]
  GI50: 39.4 µM (inactive)
[5]
  GI50: 53.3 µM (inactive)
[6]
  GI50: 16.6 µM (inactive)
[7]
  GI50: 16.1 µM (inactive)
[8]
  GI50: 58.2 µM (inactive)
[9]
  GI50: 39 µM (inactive)
[10]
  GI50: 41.6 µM (inactive)
[11]
  GI50: > 100 µM (inactive)
[12]
  GI50: 17.4 µM (inactive)
[13]
  GI50: 39 µM
[14]
  GI50: 20.4 µM (inactive)
[15]
  GI50: 71.6 µM (inactive)
[16]
  GI50: 25 µM (inactive)
[17]
  GI50: 18.7 µM (inactive)
[18]
  GI50: 34.5 µM (inactive)
[19]
  GI50: 22.8 µM (inactive)
[20]
  GI50: 59.2 µM (inactive)
[21]
  GI50: 26.9 µM (inactive)
[22]
  GI50: 30.1 µM (inactive)
[23]
  GI50: 25.9 µM (inactive)
[24]
  GI50: 49 µM (inactive)
[25]
  GI50: 33.8 µM (inactive)
[26]
  GI50: 21 µM (inactive)
[27]
  GI50: 16.9 µM (inactive)
[28]
  GI50: 70.1 µM (inactive)
[29]
  GI50: > 100 µM (inactive)
[30]
  GI50: 60.3 µM (inactive)
[31]
  GI50: 74.1 µM (inactive)
[32]
  GI50: 41.1 µM (inactive)
[33]
  GI50: 27.9 µM (inactive)
[34]
  GI50: 28.5 µM (inactive)
[35]
  GI50: 16.1 µM (inactive)
[36]
  GI50: > 100 µM (inactive)
[37]
  GI50: 35.1 µM (inactive)
[38]
  GI50: 36.6 µM (inactive)
[39]
  GI50: 22.3 µM (inactive)
[40]
  GI50: 54.8 µM (inactive)
[41]
  GI50: 53.1 µM (inactive)
[42]
  GI50: 20.7 µM (inactive)
[43]
  GI50: 43.1 µM (inactive)
[44]
  GI50: 69.5 µM (inactive)
[45]
  GI50: 35.3 µM (inactive)
[46]
  GI50: > 100 µM (inactive)
[47]
  GI50: 24.2 µM (inactive)
[48]
  GI50: 46.1 µM (inactive)
[49]
  GI50: 19 µM (inactive)
[50]
  GI50: 4.21 µM (inactive)
[51]
  GI50: 28.4 µM (inactive)
[52]
  GI50: 18.5 µM (inactive)
[53]
  GI50: > 100 µM (inactive)
[54]
  GI50: 32.7 µM (inactive)
[55]
  GI50: 49.3 µM (inactive)
[56]
  GI50: 58.7 µM (inactive)
[57]
  GI50: 18.9 µM (inactive)
